Where two headings read alike, the source gives them in different places.
Experiments:
[1] = biological target: IMP-1 (Serratia marcescens, UniProt P52699); test: biochemical; type: biochemical; conditions: read-out: IMP-1 IC50
[2] = biological target: VIM-1 (Pseudomonas aeruginosa (strain ATCC 15692 / DSM 22644 / CIP 104116 / JCM 14847 / LMG 12228 / 1C / PRS 101 / PAO1), UniProt A0A0F7KYQ8); test: Enzyme activity: determination of IC50, fluorescence assay with CCF2-FA substrate (VIM-1); type: biochemical
Procedure: Enzyme Activity: Determination of IC50
The Class B enzyme activities were measured in the presence of the test inhibitor in a fluorescence assay against a commercially available substrate consisting of a cephalosporin core linking 7-hydroxycoumarin to fluorescein (CCF2-FA). The enzyme (NDM-1, IMP-1 or VIM-1) and the substrate were diluted in 100 mM KH2PO4 buffer (pH 7) containing 0.005% Tween-20 and 10 μM ZnSO4. […] The test inhibitor was dissolved in dimethylsulfoxide and diluted 1:50 in the assay, resulting in a final concentration range of 20 uM to 0.00063 uM. In a 384-well microplate, the test inhibitor was incubated with the metallo-β-lactamase enzyme and the substrate for 2 hours at 25° C. Fluorescence at 460 nm following excitation at 405 nm was measured. The IC50 value was determined from semi-logarithmic plots of enzyme inhibition versus inhibitor concentration, with a curve generated using a 4-parameter fit.

[3] = system: Escherichia coli expressing NDM-1 (CLB30016); test: Antibiotic potentiation activity: synergistic concentration (MITC95) with imipenem, OD600 growth; type: cell-based; conditions: for Escherichia coli expressing NDM-1 (CLB 30016) MITC95: concentration giving 95% inhibition of bacterial growth
Procedure, shortened: (§1)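 Test compound was combined with 4 μg/ml imipenem (or optionally 1 μg/ml), or with no antibiotic, against saline-suspended colonies diluted 1:100 in 1.1×CAMHB. Strains were E. coli NDM-1, S. marcescens IMP-1 and K. pneumoniae VIM-1. Plates were incubated 22–24 h at 35 °C before absorbance (OD600) readout.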

[4] = system: Klebsiella pneumoniae expressing VIM-1 (IHMA599644); test: as above; type: cell-based; conditions: for Klebsiella pneumoniae expressing VIM-1 (IHMA 599644) MITC95: concentration giving 95% inhibition of bacterial growth
Procedure, shortened: as §1

[5] = system: Serratia marcescens expressing IMP-1 (CL5741); test: as above; type: cell-based; conditions: for Serratia marcescens expressing IMP-1 (CL5741) MITC95: concentration giving 95% inhibition of bacterial growth
Procedure, shortened: as §1

[6] = biological target: NDM-1 (Klebsiella pneumoniae, UniProt C7C422); test: biochemical; type: biochemical; conditions: read-out: NDM-1 IC50
Sequence of NDM-1 (C7C422 whole entry, looked up, species assumed): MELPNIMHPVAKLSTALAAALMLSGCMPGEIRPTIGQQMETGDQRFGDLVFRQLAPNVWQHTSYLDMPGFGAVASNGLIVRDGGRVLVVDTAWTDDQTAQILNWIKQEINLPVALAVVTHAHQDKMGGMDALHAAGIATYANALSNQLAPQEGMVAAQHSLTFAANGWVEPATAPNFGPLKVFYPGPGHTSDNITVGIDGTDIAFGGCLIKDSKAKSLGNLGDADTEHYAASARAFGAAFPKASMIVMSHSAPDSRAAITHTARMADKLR

[7] = IMP-1 enzyme, CCF2-FA fluorescence assay
[8] = VIM-1 enzyme, CCF2-FA fluorescence assay, read-out: VIM-1 IC50
[9] = Escherichia coli expressing NDM-1 (CLB30016), 95% growth inhibition
[10] = Klebsiella pneumoniae expressing VIM-1 (IHMA599644), 95% growth inhibition
[11] = Serratia marcescens expressing IMP-1 (CL5741), 95% growth inhibition
[12] = NDM-1 enzyme, CCF2-FA fluorescence assay
[13] = fluorescence assay with CCF2-FA substrate
[14] = fluorescence assay with CCF2-FA substrate, read-out: VIM-1 IC50
[15] = CLB30016 (NDM-1), 95% inhibition of bacterial growth
[16] = IHMA599644 (VIM-1), 95% inhibition of bacterial growth
[17] = CL5741 (IMP-1), 95% inhibition of bacterial growth
[18] = IMP-1 enzyme, CCF2-FA substrate
[19] = VIM-1 enzyme, CCF2-FA substrate, read-out: VIM-1 IC50
[20] = (CLB30016, NDM-1), 95% growth inhibition
[21] = Klebsiella pneumoniae IHMA599644 (VIM-1), 95% growth inhibition
[22] = Serratia marcescens CL5741 (IMP-1), 95% growth inhibition
[23] = NDM-1 enzyme, CCF2-FA substrate
[24] = VIM-1 IC50, fluorescence assay with CCF2-FA substrate

Sequence of IMP-1 (P52699 whole entry, looked up): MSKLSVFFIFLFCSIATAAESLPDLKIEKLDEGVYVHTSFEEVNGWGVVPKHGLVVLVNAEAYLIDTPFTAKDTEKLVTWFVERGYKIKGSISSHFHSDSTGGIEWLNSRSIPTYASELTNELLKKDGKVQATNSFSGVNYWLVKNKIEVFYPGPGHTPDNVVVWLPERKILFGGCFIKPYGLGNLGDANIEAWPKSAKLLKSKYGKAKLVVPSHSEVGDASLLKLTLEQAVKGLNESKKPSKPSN

SMILES | IC50 [1, 7] | IC50 [2, 8] | Escherichia coli MITC95 [3, 9] | Klebsiella pneumoniae MITC95 [4, 10] | Serratia marcescens MITC95 [5, 11] | IC50 [6, 12] | IC50 [1, 18] | Escherichia coli MITC95 [3, 20] | Klebsiella pneumoniae MITC95 [4, 21] | Serratia marcescens MITC95 [5, 22] | IC50 [6, 23] | further results
NS(=O)(=O)c1c(C(F)(F)F)ccc(-c2ccc3c(c2)CNC3)c1-c1nn[nH]n1 [Example 441, 3-(isoindolin-5-yl)-2-(2H-tetrazol-5-yl)-6-(trifluoromethyl)benzenesulfonamide] | 22.1 nM | 0.838 nM | 1.172 µM | 0.7813 µM | 1.563 µM | 11.3 nM | – | – | – | – | – | –
CN(C)CCCCNCc1ccc(-c2cccc(S(N)(=O)=O)c2-c2nnn[nH]2)cc1 [Example 356, 4′-({[4-(dimethylamino)butyl]amino}methyl)-2-(1H-tetrazol-5-yl)biphenyl-3-sulfonamide] | 1540 nM | 646 nM | 1.563 µM | 75 µM | 12.5 µM | 24.1 nM | – | – | – | – | – | –
NS(=O)(=O)c1nccc(N2CCC(O)CC2)c1-c1nnn[nH]1 [Example 242, 4-(4-hydroxypiperidin-1-yl)-3-(1H-tetrazol-5-yl)pyridine-2-sulfonamide] | 1120 nM | 270 nM | 0.3906 µM | 6.25 µM | 25 µM | 103 nM | – | – | – | – | – | –
NS(=O)(=O)c1cccc(-c2cnc(NC3CCCC3)nc2)c1-c1nnn[nH]1 [Example 124, 3-(2-(cyclopentylamino)pyrimidin-5-yl)-2-(1H-tetrazol-5-yl)benzenesulfonamide] | – | – | – | – | – | – | – | – | – | – | – | IC50 [1, 13]: 68.9 nM; IC50 [2, 14]: 259 nM; Escherichia coli expressing NDM-1 (CLB 30016) MITC95 [3]: 2.344 µM; Klebsiella pneumoniae expressing VIM-1 (IHMA 599644) MITC95 [4]: >200 µM; Serratia marcescens expressing IMP-1 (CL5741) MITC95 [5]: 6.25 µM; IC50 [6, 13]: 4.34 nM
Nc1ccc(-c2ccc(C(F)(F)F)c(S(N)(=O)=O)c2-c2nn[nH]n2)cn1 [Example 265, 3-(6-aminopyridin-3-yl)-2-(2H-tetrazol-5-yl)-6-(trifluoromethyl)benzenesulfonamide] | 6.93 nM | – | 0.125 µM | 4.775 µM | 0.4271 µM | 2.65 nM | – | – | – | – | – | IC50 ([2]; VIM-1 IC50, VIM-1 enzyme, CCF2-FA fluorescence assay): 1.26 nM
NC1CCC(c2ccc(CCC3CCNCC3)c(S(N)(=O)=O)c2-c2nn[nH]n2)CC1 (stereo not drawn) [Example 838, 3-(4-aminocyclohexyl)-6-[2-(4-piperidyl)ethyl]-2-(2H-tetrazol-5-yl)benzenesulfonamide] | – | – | – | – | – | – | – | – | – | – | – | IC50 [1, 13]: 1680 nM; IC50 [2, 14]: 61.2 nM; Escherichia coli MITC95 [3, 15]: 3.125 µM; Klebsiella pneumoniae MITC95 [4, 16]: 6.25 µM; Serratia marcescens MITC95 [5, 17]: 12.5 µM; IC50 [6, 13]: 68.3 nM
NC(=O)CCc1ccc(-c2cccc3sc(N)nc23)c(-c2nn[nH]n2)c1S(N)(=O)=O [Example 539, 3-(4-(2-Aminobenzo[d]thiazol-4-yl)-2-sulfamoyl-3-(2H-tetrazol-5-yl)phenyl)propanamide] | – | – | – | – | – | – | 7.62 nM | 3.125 µM | 25 µM | 12.5 µM | 0.192 nM | IC50 [2, 19]: 1.85 nM
Nc1nc(N)c2ccc(-c3ccc(C(F)(F)F)c(S(N)(=O)=O)c3-c3nnn[nH]3)cc2n1 [Example 750, 3-(2,4-diaminoquinazolin-7-yl)-2-(1H-tetrazol-5-yl)-6-(trifluoromethyl)benzenesulfon-amide] | – | – | – | – | – | – | – | – | – | – | – | IC50 [1, 13]: 21.5 nM; IC50 [2, 24]: 0.432 nM; Escherichia coli MITC95 [3, 15]: 1.563 µM; Klebsiella pneumoniae MITC95 [4, 16]: 3.125 µM; Serratia marcescens MITC95 [5, 17]: 6.25 µM; IC50 [6, 13]: 4.75 nM
Nc1nc2cccc(-c3cccc(S(N)(=O)=O)c3-c3nn[nH]n3)c2[nH]1 [Example 428, 3-(2-amino-1H-benzo[d]imidazol-7-yl)-2-(2H-tetrazol-5-yl)benzenesulfonamide] | 345 nM | 17.3 nM | 0.0625 µM | 1.531 µM | 6.25 µM | 0.683 nM | – | – | – | – | – | –
NS(=O)(=O)c1cccc(-c2ccc(N3CC(CN4CCCC4)C3)nc2)c1-c1nnn[nH]1 [Example 630, 3-[6-[3-(pyrrolidin-1-ylmethyl)azetidin-1-yl]-3-pyridyl]-2-(1H-tetrazol-5-yl)benzenesulfonamide] | – | – | – | – | – | – | 388 nM | 1.172 µM | 50 µM | 12.5 µM | 32.3 nM | IC50 [2, 19]: 635 nM
NS(=O)(=O)c1cccc(-c2cc(F)cc(F)c2)c1-c1nnn[nH]1 [Example 129, 3′,5′-difluoro-2-(1H-tetrazol-5-yl)-[1,1′-biphenyl]-3-sulfonamide] | – | – | – | – | – | – | – | – | – | – | – | IC50 [1, 13]: 176 nM; IC50 [2, 24]: 37.9 nM; Escherichia coli expressing NDM-1 (CLB 30016) MITC95 [3]: 0.7813 µM; Klebsiella pneumoniae expressing VIM-1 (IHMA 599644) MITC95 [4]: 12.5 µM; Serratia marcescens expressing IMP-1 (CL5741) MITC95 [5]: 9.375 µM; IC50 [6, 13]: 3.71 nM
Nc1nc2c(-c3ccc(CCCO)c(S(N)(=O)=O)c3-c3nn[nH]n3)cccc2s1 [Example 533, 3-(2-Aminobenzo[d]thiazol-4-yl)-6-(3-hydroxypropyl)-2-(2H-tetrazol-5-yl)benzenesulfonamide] | – | – | – | – | – | – | 16.6 nM | 3.125 µM | 12.5 µM | 12.5 µM | 0.878 nM | IC50 [2, 19]: 2.88 nM
NS(=O)(=O)c1c(C[C@H]2CC[C@@H](N)CC2)ccc(-c2ccc(C3CNC3)cc2)c1-c1nnn[nH]1 [Example 596, 4-(((1s,4s)-4-aminocyclohexyl)methyl)-4′-(azetidin-3-yl)-2-(1H-tetrazol-5-yl)-[1,1′-biphenyl]-3-sulfonamide] | – | – | – | – | – | – | 10.6 nM | 0.7813 µM | 1.563 µM | 1.563 µM | 4.38 nM | IC50 ([2]; VIM-1 IC50, VIM-1 enzyme, CCF2-FA substrate): 7.46 nM
CC(C1CCN(c2ccnc(S(N)(=O)=O)c2-c2nnn[nH]2)CC1)N1CCOCC1 (stereo not drawn) [Example 223, 4-[4-(1-morpholin-4-ylethyl)piperidin-1-yl]-3-(1H-tetrazol-5-yl)pyridine-2-sulfonamide] | – | – | – | – | – | – | – | – | – | – | – | IC50 [1, 13]: 1300 nM; IC50 [2, 14]: 583 nM; Escherichia coli expressing NDM-1 (CLB 30016) MITC95 [3]: 4.688 µM; Klebsiella pneumoniae expressing VIM-1 (IHMA 599644) MITC95 [4]: 200 µM; Serratia marcescens expressing IMP-1 (CL5741) MITC95 [5]: 25 µM; IC50 [6, 13]: 157 nM
NS(=O)(=O)c1c(C(F)(F)F)ccc(-c2cnc3cc[nH]c3c2)c1-c1nnn[nH]1 [Example 474, 3-(1H-pyrrolo[3,2-b]pyridin-6-yl)-2-(1H-tetrazol-5-yl)-6-(trifluoromethyl)benzenesulfonamide] | 3.91 nM | 0.549 nM | 0.09375 µM | 1.531 µM | 0.4453 µM | 0.523 nM | – | – | – | – | – | –
NS(=O)(=O)c1c(CC[C@H]2CC[C@@H](N)CC2)ccc(-c2ccc(C3CCNC3)cc2)c1-c1nnn[nH]1 (stereo partly drawn) [Example 585, 4-(2-((1s,4r)-4-aminocyclohexyl)ethyl)-4′-(pyrrolidin-3-yl)-2-(1H-tetrazol-5-yl)-[1,1′-biphenyl]-3-sulfonamide] | – | – | – | – | – | – | 17 nM | 0.7813 µM | 6.25 µM | 3.125 µM | 2.2 nM | IC50 [2, 19]: 4.58 nM
NS(=O)(=O)c1cccc(-c2ccc(CN3CCNC(=O)C3)cc2)c1-c1nnn[nH]1 [Example 386, 4′-[(3-oxopiperazin-1-yl)methyl]-2-(1H-tetrazol-5-yl)biphenyl-3-sulfonamide] | 32 nM | 120 nM | 6.25 µM | >200 µM | 1.563 µM | 3.23 nM | – | – | – | – | – | –
Nc1ncc2cccc(-c3ccc(C(F)(F)F)c(S(N)(=O)=O)c3-c3nn[nH]n3)c2n1 [Example 558, 3-(2-aminoquinazolin-8-yl)-2-(2H-tetrazol-5-yl)-6-(trifluoromethyl)benzenesulfonamide] | – | – | – | – | – | – | 1.96 nM | 6.25 µM | 6.25 µM | 6.25 µM | 0.145 nM | IC50 [2, 19]: 0.178 nM
NS(=O)(=O)c1cccc(-c2ccc(CN3CCCC3CO)cc2)c1-c1nnn[nH]1 (stereo not drawn) [Example 395, 4′-{[2-(hydroxymethyl)pyrrolidin-1-yl]methyl}-2-(1H-tetrazol-5-yl)biphenyl-3-sulfonamide] | 226 nM | 343 nM | 1.563 µM | 100 µM | 3.125 µM | 14.4 nM | – | – | – | – | – | –

From patent publication US9708336B2, “Metallo-beta-lactamase inhibitors” (priority 2014, dated 2017)
